Reference: US10597388B2, “Pyridazinone herbicides” (FMC CORPORATION, priority 2014, dated 2020)

Assays:
Type in all cases: in vivo
[1] = tested on: corn (Zea mays); test: Test A greenhouse herbicide test, pre- and postemergence; settings: Postemergence; for Plant response rating, Corn: 125 g ai/ha, 0 to 100 scale where 0 is no effect and 100 is complete control; for Corn plant response rating: 500 g ai/ha, 0 to 100 scale, 0 is no effect, 100 is complete control
Source text: (§1) Seeds of plant species selected from barnyardgrass (Echinochloa crus-galli), kochia (Kochia scoparia), ragweed (common ragweed, Ambrosia elatior), ryegrass, Italian (Italian ryegrass, Lolium multiflorum), crabgrass, large (large crabgrass, Digitaria sanguinalis), foxtail, giant (giant foxtail, Setaria faberii), momingglory (Ipomoea spp.), pigweed (Amaranthus retroflexus), velvetleaf (Abutilon theophrasti), wheat (Triticum aestivum), and corn (Zea mays) were planted into a blend of loam soil and sand and treated preemergence with a directed soil spray using test chemicals formulated in a non-phytotoxic solvent mixture which included a surfactant.
(§2) At the same time, plants selected from these crop and weed species and also blackgrass (Alopecurus myosuroides), and galium (catchweed bedstraw, Galium aparine) were planted in pots containing the same blend of loam soil and sand and treated with postemergence applications of test chemicals formulated in the same manner. Plants ranged in height from 2 to 10 cm and were in the one- to two-leaf stage for the postemergence treatment. Treated plants and untreated controls were maintained in a greenhouse for approximately 10 d, after which time all treated plants were compared to untreated controls and visually evaluated for injury. Plant response ratings, summarized in Table A, are based on a 0 to 100 scale where 0 is no effect and 100 is complete control. A dash (-) response means no test result.

[2] = tested on: kochia (Kochia scoparia); test: as above
Source text: as §1, §2

[3] = tested on: wheat (Triticum aestivum); test: as above; settings: Postemergence; for Plant response rating, Wheat: 125 g ai/ha, 0 to 100 scale where 0 is no effect and 100 is complete control; for Wheat plant response rating: 500 g ai/ha, 0 to 100 scale, 0 is no effect, 100 is complete control
Source text: as §1, §2

[4] = tested on: barnyardgrass (Echinochloa crus-galli); test: as above
Source text: as §1, §2

[5] = tested on: foxtail, giant (giant foxtail, Setaria faberii); test: as above
Source text: as §1, §2

[6] = tested on: pigweed (Amaranthus retroflexus); test: as above
Source text: as §1, §2

[7] = tested on: ragweed (common ragweed, Ambrosia elatior); test: as above
Source text: as §1, §2

[8] = tested on: ryegrass, Italian (Italian ryegrass, Lolium multiflorum); test: as above
Source text: as §1, §2

[9] = tested on: ducksalad (Heteranthera limosa); test: Test B flooded paddy test; settings: 250 g ai/ha, Flood; visual rating on scale of 0 to 100 where 0 is no effect and 100 is complete control; 13 to 15 d after treatment
Outline: (§3)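 Plants at the 2-leaf stage were flooded to 3 cm above soil, and test compounds were applied directly into the paddy water, which was held at that depth throughout. After 13 to 15 d in a greenhouse, injury was rated visually against untreated controls on a 0–100 scale (0 no effect, 100 complete control).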

[10] = tested on: sedge, umbrella (small-flower umbrella sedge, Cyperus difformis); test: Test B flooded paddy test; settings: 250 g ai/ha, Flood; visual rating on scale of 0 to 100 where 0 is no effect and 100 is complete control; 13 to 15 d after treatment
Outline: as §3

[11] = tested on: rice (Oryza sativa); test: Test B flooded paddy test; settings: 250 g ai/ha, Flood; visual rating on scale of 0 to 100 where 0 is no effect and 100 is complete control; 13 to 15 d after treatment
Outline: as §3

[12] = tested on: barnyardgrass (Echinochloa crus-galli); test: Test B flooded paddy test; settings: 250 g ai/ha, Flood; visual rating on scale of 0 to 100 where 0 is no effect and 100 is complete control; 13 to 15 d after treatment
Outline: as §3

[13] = tested on: galium (catchweed bedstraw, Galium aparine); test: Test A greenhouse herbicide test, postemergence; settings: for Plant response rating, Galium: 125 g ai/ha, 0 to 100 scale where 0 is no effect and 100 is complete control; for Galium plant response rating: 500 g ai/ha, 0 to 100 scale, 0 is no effect, 100 is complete control
Outline: (§4)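 Plants grown in loam soil/sand blend pots were treated postemergence at 2 to 10 cm height, one- to two-leaf stage, with formulated test chemicals. After approximately 10 d in a greenhouse, injury was rated visually against untreated controls on a 0 to 100 scale (0 no effect, 100 complete control).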

[14] = tested on: blackgrass (Alopecurus myosuroides); test: Test A greenhouse herbicide test, postemergence; settings: for Plant response rating, Blackgrass: 125 g ai/ha, 0 to 100 scale where 0 is no effect and 100 is complete control; for Blackgrass plant response rating: 500 g ai/ha, 0 to 100 scale, 0 is no effect, 100 is complete control
Outline: as §4

[15] = Postemergence, 125 g ai/ha, 0 to 100 scale where 0 is no effect and 100 is complete control
[16] = Postemergence, 500 g ai/ha, 0 to 100 scale, 0 is no effect, 100 is complete control
[17] = Preemergence, 125 g ai/ha, 0 to 100 scale where 0 is no effect and 100 is complete control
[18] = Preemergence, 500 g ai/ha, 0 to 100 scale where 0 is no effect and 100 is complete control
[19] = Preemergence, 500 g ai/ha, 0 to 100 scale, 0 no effect, 100 complete control

Row | SMILES | Plant response rating, Corn [1] | Corn plant response rating [1] | Plant response rating, Kochia [2, 15] | Kochia plant response rating [2, 16] | Kochia plant response rating [2, 17] | Plant response rating, Kochia [2, 18] | Plant response rating, Wheat [3] | Wheat plant response rating [3] | Plant response rating, Barnyardgrass [4, 15] | Barnyardgrass plant response rating [4, 16] | Barnyardgrass plant response rating [4, 17] | Plant response rating, Foxtail, Giant [5, 15] | Foxtail, Giant plant response rating [5, 16] | Foxtail, Giant plant response rating [5, 17] | Plant response rating, Foxtail, Giant [5, 18] | Plant response rating, Pigweed [6, 15] | Pigweed plant response rating [6, 16] | Pigweed plant response rating [6, 17] | Plant response rating, Pigweed [6, 18] | Plant response rating, Ragweed [7, 15] | also measured
1 | CCOc1ccc2oc(CC)c(-c3c(O)c(C)nn(C)c3=O)c2c1 [Compound 68] | 0 | 0 | 0 | 0 | 0 | 0 | 0 | 0 | 70 | 80 | 10 | 10 | 50 | 10 | 50 | 0 | 0 | 0 | 0 | 0 | Plant response rating, Barnyardgrass [4, 19]: 40; Ragweed plant response rating [7, 16]: 0; Ragweed plant response rating [7, 17]: 0; Plant response rating, Ragweed [7, 18]: 20; Plant response rating, Ryegrass, Italian [8, 15]: 0; Ryegrass, Italian plant response rating [8, 16]: 0; Ryegrass, Italian plant response rating [8, 17]: 0; Plant response rating, Ryegrass, Italian [8, 18]: 0; Plant response rating, Ducksalad [9]: 0; Plant response rating, Sedge, Umbrella [10]: 30; Plant response rating, Rice [11]: 0; Plant response rating, Barnyardgrass [12]: 0; Plant response rating, Galium [13]: 0; Galium plant response rating [13]: 0; Plant response rating, Blackgrass [14]: 0; Blackgrass plant response rating [14]: 10
2 | Cc1nn(C)c(=O)c(-c2c(C)n(C)c3ccc(Cl)cc23)c1O [Compound 74] | 0 | 0 | 30 | 30 | 0 | 0 | 0 | 0 | 0 | 10 | 0 | 0 | 20 | 0 | 0 | 40 | 50 | 30 | 50 | 0 | Plant response rating, Barnyardgrass [4, 19]: 0; Ragweed plant response rating [7, 16]: 10; Ragweed plant response rating [7, 17]: 0; Plant response rating, Ragweed [7, 18]: 0; Plant response rating, Ryegrass, Italian [8, 15]: 0; Ryegrass, Italian plant response rating [8, 16]: 0; Ryegrass, Italian plant response rating [8, 17]: 0; Plant response rating, Ryegrass, Italian [8, 18]: 0; Plant response rating, Ducksalad [9]: 0; Plant response rating, Sedge, Umbrella [10]: 0; Plant response rating, Rice [11]: 0; Plant response rating, Barnyardgrass [12]: 0; Plant response rating, Galium [13]: 10; Galium plant response rating [13]: 20; Plant response rating, Blackgrass [14]: 20; Blackgrass plant response rating [14]: 40
3 | COc1nn(C)c(=O)c(-c2c(C(F)F)ccc3ccccc23)c1O [Compound 86] | 0 | 0 | 70 | 80 | 0 | 40 | 0 | 0 | 30 | 10 | 0 | 50 | 70 | 20 | 70 | 90 | 90 | 80 | 100 | 80 | Plant response rating, Barnyardgrass [4, 18]: 40; Ragweed plant response rating [7, 16]: 80; Ragweed plant response rating [7, 17]: 40; Plant response rating, Ragweed [7, 18]: 90; Plant response rating, Ryegrass, Italian [8, 15]: 0; Ryegrass, Italian plant response rating [8, 16]: 50; Ryegrass, Italian plant response rating [8, 17]: 0; Plant response rating, Ryegrass, Italian [8, 18]: 40; Plant response rating, Ducksalad [9]: 20; Plant response rating, Sedge, Umbrella [10]: 60; Plant response rating, Rice [11]: 15; Plant response rating, Barnyardgrass [12]: 0; Plant response rating, Galium [13]: 90; Galium plant response rating [13]: 100; Plant response rating, Blackgrass [14]: 10; Blackgrass plant response rating [14]: 30
4 | CCOc1ccc2cccc(-c3c(O)c(C)nn(C)c3=O)c2c1 [Compound 92] | 0 | 0 | 60 | 70 | 0 | 20 | 0 | 0 | 0 | 0 | 0 | 0 | 0 | 0 | 0 | 20 | 30 | 0 | 0 | 0 | Plant response rating, Barnyardgrass [4, 18]: 0; Ragweed plant response rating [7, 16]: 0; Ragweed plant response rating [7, 17]: 0; Plant response rating, Ragweed [7, 18]: 0; Plant response rating, Ryegrass, Italian [8, 15]: 0; Ryegrass, Italian plant response rating [8, 16]: 0; Ryegrass, Italian plant response rating [8, 17]: 0; Plant response rating, Ryegrass, Italian [8, 18]: 0; Plant response rating, Ducksalad [9]: 0; Plant response rating, Sedge, Umbrella [10]: 40; Plant response rating, Rice [11]: 0; Plant response rating, Barnyardgrass [12]: 0; Plant response rating, Galium [13]: 10; Galium plant response rating [13]: 30; Plant response rating, Blackgrass [14]: 0; Blackgrass plant response rating [14]: 20
5 | Cc1nn(C)c(=O)c(-c2cccc3ccc(OC(F)F)cc23)c1O [Compound 93] | 0 | 30 | 20 | 30 | 0 | 30 | 0 | 20 | 0 | 20 | 0 | 0 | 10 | 0 | 0 | 30 | 60 | 20 | 90 | 0 | Plant response rating, Barnyardgrass [4, 18]: 0; Ragweed plant response rating [7, 16]: 50; Ragweed plant response rating [7, 17]: 0; Plant response rating, Ragweed [7, 18]: 20; Plant response rating, Ryegrass, Italian [8, 15]: 40; Ryegrass, Italian plant response rating [8, 16]: 90; Ryegrass, Italian plant response rating [8, 17]: 20; Plant response rating, Ryegrass, Italian [8, 18]: 40; Plant response rating, Ducksalad [9]: 0; Plant response rating, Sedge, Umbrella [10]: 50; Plant response rating, Rice [11]: 0; Plant response rating, Barnyardgrass [12]: 0; Plant response rating, Galium [13]: 70; Galium plant response rating [13]: 90; Plant response rating, Blackgrass [14]: 0; Blackgrass plant response rating [14]: 0
